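Method: 48-hour compound exposure of cells in 96-well plates, five concentrations, linear interpolation of endpoints. TGI denotes the concentration required for complete inhibition of growth.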
Assays:
Assay in all cases: inhibition of tumour cell growth, NCI panel, 48 h
MOLT-4 leukemia = test system: MOLT-4 leukemia
MALME-3M melanoma = test system: MALME-3M melanoma
SW-620 colon = test system: SW-620 colon
DLD-1 colon = test system: DLD-1 colon
HCC-2998 colon = test system: HCC-2998 colon
CAKI-1 renal = test system: CAKI-1 renal
NCI-H522 lung = test system: NCI-H522 lung
RPMI-8226 leukemia = test system: RPMI-8226 leukemia
RXF 393 renal = test system: RXF 393 renal
HL-60(TB) leukemia = test system: HL-60(TB) leukemia
SK-MEL-28 melanoma = test system: SK-MEL-28 melanoma
OVCAR-8 ovarian = test system: OVCAR-8 ovarian
M14 melanoma = test system: M14 melanoma
LOX IMVI melanoma = test system: LOX IMVI melanoma
U251 CNS = test system: U251 CNS
SNB-19 CNS = test system: SNB-19 CNS
M19-MEL melanoma = test system: M19-MEL melanoma
SK-MEL-2 melanoma = test system: SK-MEL-2 melanoma
KM12 colon = test system: KM12 colon
EKVX NSCLC = test system: EKVX NSCLC
NCI-H226 lung = test system: NCI-H226 lung
786-0 renal = test system: 786-0 renal
COLO 205 colon = test system: COLO 205 colon
UACC-62 melanoma = test system: UACC-62 melanoma
SK-OV-3 ovarian = test system: SK-OV-3 ovarian
UO-31 renal = test system: UO-31 renal
DMS 114 small cell lung = test system: DMS 114 small cell lung
ACHN renal = test system: ACHN renal
CCRF-CEM leukemia = test system: CCRF-CEM leukemia
A549 NSCLC = test system: A549 NSCLC
UACC-257 melanoma = test system: UACC-257 melanoma
SN12C renal = test system: SN12C renal
KM20L2 colon = test system: KM20L2 colon
LXFL 529 NSCLC = test system: LXFL 529 NSCLC
OVCAR-5 ovarian = test system: OVCAR-5 ovarian
SR leukemia = test system: SR leukemia
OVCAR-4 ovarian = test system: OVCAR-4 ovarian
TK-10 renal = test system: TK-10 renal
HCT-116 colon = test system: HCT-116 colon
SNB-78 CNS = test system: SNB-78 CNS
NCI-H23 lung = test system: NCI-H23 lung
SF-268 CNS = test system: SF-268 CNS
IGROV1 ovarian = test system: IGROV1 ovarian
SF-295 CNS = test system: SF-295 CNS
HOP-92 NSCLC = test system: HOP-92 NSCLC
K-562 leukemia = test system: K-562 leukemia
HCT-15 colon = test system: HCT-15 colon
HT29 colon = test system: HT29 colon
NCI-H460 lung = test system: NCI-H460 lung
SF-539 CNS = test system: SF-539 CNS
A498 renal = test system: A498 renal
HOP-62 NSCLC = test system: HOP-62 NSCLC
HOP-18 NSCLC = test system: HOP-18 NSCLC
OVCAR-3 ovarian = test system: OVCAR-3 ovarian
SK-MEL-5 melanoma = test system: SK-MEL-5 melanoma
SNB-75 CNS = test system: SNB-75 CNS
DMS 273 small cell lung = test system: DMS 273 small cell lung

Measured: TGI

CCc1cccc(CC)c1NC(=O)C(=O)Cc1nc2ccccc2o1
not listed: SK-MEL-5 melanoma | SNB-75 CNS | DMS 273 small cell lung
> 100 µM: all other assays above

COc1cccc2c1C(=O)C1(O)CCCCC21 (configuration not stated)
not listed: EKVX NSCLC | SR leukemia | HOP-92 NSCLC
> 100 µM: all other assays above

O=C(CSc1nnc(Cc2ccccc2)o1)Nc1ccc(Cl)cc1Cl
not listed: EKVX NSCLC | SR leukemia | HOP-92 NSCLC
> 100 µM: all other assays above

Source: PubChem BioAssay (NCI)
